Source: ChEMBL document CHEMBL5029175, “Discovery of MK-4688: an Efficient Inhibitor of the HDM2-p53 Protein-Protein Interaction” (J Med Chem, 2021)
pIC50: −log10 of the molar value.

Key:
[1] = biological target: T1, Tumour suppressor p53/oncoprotein Mdm2 (Homo sapiens, UniProt Q00987); experiment: Inhibition of N-terminal thioredoxin-His6 tagged HDM2 (17 to 125 residues)/p53 protein-protein interaction (unknown origin) incubated for 2 hrs by TR-FRET assay
[2] = Selectivity index, ratio of IC50 for inhibition of HDM2/p53 interaction in human HCT-116 cells expressing p53/Bla to IC50 for inhibition of N-terminal thioredoxin-His6 tagged HDM2 (17 to 125 residues)/p53 protein-protein interaction (unknown origin); assay type: cell-based
[3] = biological target: T1, Tumour suppressor p53/oncoprotein Mdm2; experiment: Inhibition of HDM2/p53 interaction in human HCT-116 cells expressing p53RE/Bla incubated for 16 hrs by beta-lactamase reporter gene assay; assay type: cell-based
[4] = Lipophilicity, logD of the compound at pH 7 by RP-HPLC analysis; assay type: physicochemical; conditions: buffer
[5] = Mean residence time in dog; assay type: ADME, Canis lupus familiaris; conditions: in vivo
[6] = Unbound clearance in dog; assay type: ADME, Canis lupus familiaris; conditions: in vivo
[7] = Bioavailability in dog; assay type: ADME, organism-based, Canis lupus familiaris; conditions: in vivo
[8] = Bioavailability in rat; assay type: ADME, organism-based; conditions: in vivo
[9] = Unbound clearance in rat; assay type: ADME; conditions: in vivo
[10] = Mean residence time in rat; assay type: ADME; conditions: in vivo
HCT-116 = experiment: cells; conditions: Homo sapiens, HCT-116, 72 h

T1 sequence (P04637 whole entry, the tested form may be a part): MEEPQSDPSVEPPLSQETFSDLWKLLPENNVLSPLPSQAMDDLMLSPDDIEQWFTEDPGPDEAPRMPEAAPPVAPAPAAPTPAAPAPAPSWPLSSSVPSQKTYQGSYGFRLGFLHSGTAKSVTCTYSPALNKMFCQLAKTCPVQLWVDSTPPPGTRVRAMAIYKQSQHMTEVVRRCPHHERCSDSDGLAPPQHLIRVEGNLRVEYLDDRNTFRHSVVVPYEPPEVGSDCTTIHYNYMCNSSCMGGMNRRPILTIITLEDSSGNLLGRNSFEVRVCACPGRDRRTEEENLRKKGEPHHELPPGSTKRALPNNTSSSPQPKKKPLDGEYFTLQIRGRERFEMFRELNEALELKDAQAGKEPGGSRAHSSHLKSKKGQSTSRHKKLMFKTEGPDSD
T1 sequence (Q00987 whole entry, the tested form may be a part): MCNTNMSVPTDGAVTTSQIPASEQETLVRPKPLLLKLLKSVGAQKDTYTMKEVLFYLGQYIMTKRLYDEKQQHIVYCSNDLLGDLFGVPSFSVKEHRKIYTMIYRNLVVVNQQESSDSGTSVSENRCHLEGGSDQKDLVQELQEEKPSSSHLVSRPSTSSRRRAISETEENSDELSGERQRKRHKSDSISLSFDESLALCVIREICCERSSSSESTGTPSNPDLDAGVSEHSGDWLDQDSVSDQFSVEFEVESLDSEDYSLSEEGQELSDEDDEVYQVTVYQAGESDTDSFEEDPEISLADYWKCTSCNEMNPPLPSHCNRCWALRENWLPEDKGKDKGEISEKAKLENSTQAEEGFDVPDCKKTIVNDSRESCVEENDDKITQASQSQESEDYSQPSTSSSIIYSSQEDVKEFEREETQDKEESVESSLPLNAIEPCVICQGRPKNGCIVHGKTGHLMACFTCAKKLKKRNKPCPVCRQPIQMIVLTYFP

Row | SMILES | pIC50 [1] | pIC50 [3] | logD [4] | pIC50 (HCT-116) | also measured
1 | C[C@@H](Nc1nc(-c2n[nH]c(=O)n2C)nc2nc(N3CCOC[C@H]3c3ccccc3)n(C[C@H]3CC[C@H](C)CC3)c12)C1CCC1 | 7.82 | 6.00 |  |  | Ratio IC50 [2]: 66
2 | C[C@@H](Nc1nc(-c2n[nH]c(=O)o2)nc2nc(N3CCOC[C@H]3c3ccccc3)n(C[C@H]3CC[C@H](C)CC3)c12)C1CCC1 | 8.70 | 6.85 |  |  | Ratio IC50 [2]: 70
3 | C[C@@H](Nc1nc(C(=O)O)nc2nc(NC3CCCCC3)n(Cc3ccc(C(F)(F)F)cc3)c12)C1CCC1 |  |  | 2.62 |  | 
4 | CC(C)c1ccnc(-c2nc3nc(C(=O)O)nc(N[C@H](C)C4CCC4)c3n2Cc2ccc(C(F)(F)F)s2)c1 |  |  | 2.67 |  | 
5 | CC(C)c1ccnc(-c2nc3nc(C(=O)O)nc(N[C@H](C)C4CCC4)c3n2Cc2ccc(OC(F)(F)F)c(F)c2)c1 |  |  | 2.84 |  | 
6 | C[C@H]1CC[C@H](Cn2c(N3CCOC[C@H]3c3ccccc3)nc3cc(-c4noc(=O)[nH]4)nc(-c4cncc(Cl)c4)c32)CC1 | 9.21 | 7.51 | 2.69 | 7.03 | MRT [5]: 1.7 h; CL free [6]: 1607 mL/min/kg; bioavailability [7]: 39%; bioavailability [8]: 5%; CL free [9]: 20745 mL/min/kg; MRT [10]: 0.4 h
7 | COCC(c1ccccc1)c1nc2cc(-c3noc(=O)[nH]3)nc(-c3cncc(Cl)c3)c2n1C[C@H]1CC[C@H](C)CC1 (mixture of isomers) |  |  | 2.62 | 6.35 | 
8 | C[C@@H]1COC[C@@H](C)N1c1nc2cc(-c3noc(=O)[nH]3)nc(-c3cncc(Cl)c3)c2n1C[C@H]1CC[C@H](C)CC1 |  |  | 2.32 | 6.61 | MRT [5]: 3.9 h; CL free [6]: 131 mL/min/kg; bioavailability [8]: 9%; CL free [9]: 2166 mL/min/kg; MRT [10]: 0.3 h
9 | Cc1cccc(-c2nc3nc(C(=O)O)nc(NCC4CC4)c3n2CC2CCCCC2)c1 | 5.08 |  | 3.7 |  | 
10 | Cc1cncc(-c2nc(-c3noc(=O)[nH]3)nc3nc(N4CCOC[C@H]4c4ccccc4)n(C[C@H]4CC[C@H](C)CC4)c23)c1 |  | 5.43 | 2.17 | 5.11 | 
11 | C[C@@H](Nc1nc(-c2nnc[nH]2)nc2nc(N3CCOC[C@H]3c3ccccc3)n(C[C@H]3CC[C@H](C)CC3)c12)C1CCC1 | 7.96 | 6.14 |  |  | Ratio IC50 [2]: 66
12 | COCC(C)c1nc2cc(-c3noc(=O)[nH]3)nc(-c3cncc(Cl)c3)c2n1[C@H](C)[C@H]1CC[C@H](C)CC1 (stereo partly drawn) |  |  | 2.59 | 6.65 | MRT [5]: 3.8 h; CL free [6]: 59 mL/min/kg; bioavailability [7]: 54%; bioavailability [8]: 46%; CL free [9]: 1150 mL/min/kg; MRT [10]: 0.4 h
13 | C[C@H]1CC[C@H](Cn2c(N3CCOC[C@H]3c3ccccc3)nc3nc(-c4noc(=O)[nH]4)nc(-c4cccc(Cl)c4)c32)CC1 | 8.89 | 6.95 | 3.15 | 6.14 | 
14 | C[C@@H](Nc1nc(CO)nc2nc(N3CCOC[C@H]3c3ccccc3)n(C[C@H]3CC[C@H](C)CC3)c12)C1CCC1 |  | 5.39 |  |  | Ratio IC50 [2]: 52
15 | C[C@H]1CC[C@H](Cn2c(N3CCOC[C@H]3c3ccccc3)nc3nc(-c4noc(=O)[nH]4)nc(-c4ccccc4)c32)CC1 |  | 6.20 | 2.72 | 5.20 | 
16 | C[C@H]1CC[C@H](Cn2c(N3CCOC[C@H]3c3ccccc3)nc3nc(-c4noc(=O)[nH]4)nc(-c4cncc(Cl)c4)c32)CC1 |  | 6.40 | 2.55 | 5.71 | 

Row | SMILES | pIC50 [1] | pIC50 [3] | logD [4] | pIC50 (HCT-116) | also measured
17 | COCC(C)c1nc2cc(-c3noc(=O)[nH]3)nc(-c3cncc(Cl)c3)c2n1C[C@H]1CC[C@H](C)CC1 (stereo partly drawn) |  |  | 2.03 | 5.95 | MRT [5]: 1.2 h; CL free [6]: 171 mL/min/kg
18 | C[C@@H](Nc1nc(C(=O)O)nc2nc(-c3ccc4sccc4c3)n(Cc3ccc(Cl)cc3)c12)C1CC1 |  |  | 2.2 |  | 
19 | CC(C)c1ccnc(-c2nc3nc(C(=O)O)nc(N[C@H](C)C4CCC4)c3n2C[C@H]2CC[C@@H](C)CC2)c1 | 6.46 |  | 2.7 |  | 
20 | C[C@@H](Nc1nc(-c2nc(=O)n(C)[nH]2)nc2nc(N3CCOC[C@H]3c3ccccc3)n(C[C@H]3CC[C@H](C)CC3)c12)C1CCC1 | 8.82 | 6.69 |  |  | Ratio IC50 [2]: 135
21 | CCO[C@@H](c1nc2cc(-c3noc(=O)[nH]3)nc(-c3cncc(Cl)c3)c2n1[C@H](C)[C@H]1CC[C@H](C)CC1)C1CC1 |  |  | 2.75 | 7.51 | MRT [5]: 3.1 h; CL free [6]: 323 mL/min/kg; bioavailability [7]: 93%; bioavailability [8]: 54%; CL free [9]: 2060 mL/min/kg; MRT [10]: 0.5 h
22 | CC(C)c1ccnc(-c2nc3nc(C(=O)O)nc(N[C@H](C)C4CCC4)c3n2C[C@H]2CC[C@H](C)CC2)c1 (mixture of isomers) | 8.66 |  | 2.94 |  | 
23 | C[C@@H](Nc1nc(C(=O)O)nc2nc(N3CCOC[C@H]3c3ccccc3)n(Cc3ccc(C(F)(F)F)cc3)c12)C1CCC1 | 8.74 |  | 2.32 |  | 
24 | CC(C)c1ccnc(-c2nc3nc(C(=O)O)nc(N[C@H](C)C4CCC4)c3n2Cc2ccc(C(F)(F)F)cc2)c1 | 8.40 |  | 2.66 |  | 
25 | C[C@@H](Nc1nc(C(=O)O)nc2nc(N[C@@H](CO)c3ccccc3)n(Cc3ccc(C(F)(F)F)cc3)c12)C1CCC1 | 8.82 |  | 1.94 |  | 
26 | CCOC(c1nc2cc(-c3noc(=O)[nH]3)nc(-c3cncc(Cl)c3)c2n1C[C@H]1CC[C@H](C)CC1)C1CC1 (stereo partly drawn) |  |  | 2.34 | 6.33 | MRT [5]: 1.6 h; CL free [6]: 206 mL/min/kg
27 | C[C@@H](Nc1nc(C(=O)O)nc2nc(N3CCOC[C@@H]3c3ccccc3)n(Cc3ccc(C(F)(F)F)cc3)c12)C1CCC1 |  |  | 2.34 |  | 
28 | CC(C)c1ccnc(-c2nc3nc(C(=O)O)nc(N[C@H](C)C4CCC4)c3n2Cc2ccc(OC(F)(F)F)cc2)c1 | 7.92 |  | 2.81 |  | 
29 | CC(C)c1cccc(-c2nc3nc(C(=O)O)nc(N[C@H](C)C4CCC4)c3n2Cc2ccc(C(F)(F)F)cc2)c1 | 7.82 |  | 2.86 |  | 
30 | C[C@@H](Nc1nc(C(=O)O)nc2nc(N3CCOC[C@H]3c3ccccc3)n(C[C@H]3CC[C@H](C)CC3)c12)C1CCC1 |  | 5.96 |  |  | Ratio IC50 [2]: 5500
31 | C[C@H]1CC[C@H](Cn2c(N3CCC[C@H]3CF)nc3cc(-c4noc(=O)[nH]4)nc(-c4cncc(Cl)c4)c32)CC1 |  |  | 2.42 | 6.77 | MRT [5]: 1.5 h; CL free [6]: 920 mL/min/kg; bioavailability [7]: 37%; bioavailability [8]: 7%; CL free [9]: 3244 mL/min/kg; MRT [10]: 0.25 h
32 | C[C@H]1CC[C@H](Cn2c(N3CCC[C@H]3C(F)(F)F)nc3cc(-c4noc(=O)[nH]4)nc(-c4cncc(Cl)c4)c32)CC1 |  |  | 2.85 | 7.00 | MRT [5]: 2.5 h; CL free [6]: 1500 mL/min/kg; bioavailability [8]: 11%; CL free [9]: 11233 mL/min/kg; MRT [10]: 0.35 h
